Data published in patent US20260027101A1, “BACTERIAL TOPOISOMERASE INHIBITORS” (priority 2022, published 2026).
In brackets after ≈: the same amount, converted by molar mass. Like-named read-outs stand apart in the source and are kept apart here.

Columns and labels:
Format in all cases: cell-based
[1] = system: Staphylococcus aureus ATCC 29213; experiment: MIC, S. aureus ATCC 29213 (CLSI)
Protocol: (§1) Minimum inhibitory concentrations (MICs) were determined in triplicate according to Clinical and Laboratory Standards Institute (CLSI) guidelines using one or more strains of S. aureus or selected Gram-negative bacteria. […] Compounds were also assayed using a USA300 (Hidron, A. I., et al., Emergence of Community-Acquired Meticillin-Resistant Staphylococcus aureus Strain USA300 as a Cause of Necrotising Community-Onset Pneumonia. Lancet Infect. Dis. 2009, 9. 384-392) isolate of MRSA as well as a S. aureus strain isolated from a cystic fibrosis patient.

[2] = system: Escherichia coli ATCC 25922; experiment: MIC, Escherichia coli ATCC 25922
Protocol: as §1

[3] = system: Salmonella enterica 14028 ΔtolC (efflux-deficient strain); experiment: microbe, parasite or virus in culture; conditions: for MIC: Salmonella enterica, read-out: MIC against Salmonella enterica 14028 ΔtolC
Protocol: as §1

[4] = system: Staphylococcus aureus D83N (29213-derived strain, GyrA substitution); experiment: microbe, parasite or virus in culture; conditions: read-out: MIC against Staphylococcus aureus D83N
Protocol: as §1

[5] = system: Staphylococcus aureus M121K (29213-derived strain, GyrA substitution); experiment: microbe, parasite or virus in culture; conditions: read-out: MIC against Staphylococcus aureus M121K
Protocol: as §1

[6] = system: Staphylococcus aureus CF isolate; experiment: MIC, S. aureus cystic fibrosis isolate (CLSI); conditions: read-out: MIC against Staphylococcus aureus CF isolate
Protocol: as §1

[7] = system: Pseudomonas aeruginosa ATCC 27853; experiment: MIC, Pseudomonas aeruginosa ATCC 27853
Protocol: as §1

[8] = system: Salmonella enterica ATCC 14028; experiment: MIC, Salmonella enterica ATCC 14028
Protocol: as §1

[9] = system: Staphylococcus aureus USA300 (MRSA isolate); experiment: MIC, S. aureus USA300 MRSA isolate (CLSI); conditions: read-out: MIC against Staphylococcus aureus USA300
Protocol: as §1

[10] = system: Acinetobacter baumanii ATCC 19606; experiment: MIC, Acinetobacter baumanii ATCC 19606; conditions: Acinetobacter baumannii
Protocol: as §1

[11] = ATCC29213, read-out: MIC against Staphylococcus aureus ATCC 29213
[12] = ATCC25922, read-out: MIC against Escherichia coli ATCC 25922
[13] = ATCC27853, read-out: MIC against Pseudomonas aeruginosa ATCC 27853
[14] = ATCC14028, read-out: MIC against Salmonella enterica ATCC 14028
[15] = ATCC19606, read-out: MIC against Acinetobacter baumanii ATCC 19606
[16] = ATCC29213, strain ATCC 29213, triplicate, CLSI, read-out: MIC against Staphylococcus aureus ATCC 29213
[17] = ATCC25922, strain ATCC 25922, read-out: MIC against Escherichia coli ATCC 25922
[18] = ATCC27853, strain ATCC 27853, read-out: MIC against Pseudomonas aeruginosa ATCC 27853
[19] = ATCC14028, strain ATCC 14028, read-out: MIC against Salmonella enterica ATCC 14028
[20] = USA300 MRSA isolate, ciprofloxacin-resistant
[21] = ATCC19606, strain ATCC 19606, read-out: MIC against Acinetobacter baumanii ATCC 19606

Compound	MIC [1, 11]	MIC [2, 12]	MIC against Salmonella enterica 14028 ΔtolC ([3]; efflux-deficient strain)	MIC [4]	MIC [5]	MIC [6]	MIC [7, 13]	MIC [8, 14]	MIC [9]	MIC [10, 15]	MIC [3]	MIC [1, 16]	MIC [2, 17]	MIC ([6]; isolate from individual with cystic fibrosis)	MIC [7, 18]	MIC [8, 19]	MIC [9, 20]	MIC [10, 21]
COc1ccc2ncc(F)c(CCN3CCC(/C=C/c4ccc5c(c4)OCCO5)CC3)c2n1 [Example 2, (E)-8-(2-(4-(2-(2,3-dihydrobenzo[b][1,4]dioxin-6-yl)vinyl)piperidin-1-yl)ethyl)-7-fluoro-2-methoxy-1,5-naphthyridine]	0.25 µg/mL (≈ 0.556 µM)	8 µg/mL (≈ 17.8 µM)	0.125 µg/mL (≈ 0.278 µM)	2 µg/mL (≈ 4.45 µM)	2 µg/mL (≈ 4.45 µM)	0.5 µg/mL (≈ 1.11 µM)	64 µg/mL (≈ 142 µM)	64 µg/mL (≈ 142 µM)	0.5 µg/mL (≈ 1.11 µM)	8 µg/mL (≈ 17.8 µM)	–	–	–	–	–	–	–	–
COc1ccc2ncc(F)c(CCN3CCC(/C=C/c4ccc5c(c4)NC(=O)CO5)CC3)c2n1 [Example 3, (E)-6-(2-(1-(2-(3-fluoro-6-methoxy-1,5-naphthyridin-4-yl)ethyl)piperidin-4-yl)vinyl)-2H-benzo[b][1,4]oxazin-3(4H)-one]	0.5 µg/mL (≈ 1.08 µM)	4 µg/mL (≈ 8.65 µM)	–	16 µg/mL (≈ 34.6 µM)	16 µg/mL (≈ 34.6 µM)	1 µg/mL (≈ 2.16 µM)	4 µg/mL (≈ 8.65 µM)	16 µg/mL (≈ 34.6 µM)	≤ 0.25 µg/mL	8 µg/mL (≈ 17.3 µM)	0.25 µg/mL (≈ 0.541 µM)	–	–	–	–	–	–	–
COc1ccc2ncc(F)c(CCN3CCC(/C=C\c4ccc5c(c4)OCCO5)CC3)c2n1 [Example 11, (Z)-8-(2-(4-(2-(2,3-dihydrobenzo[b][1,4]dioxin-6-yl)vinyl)piperidin-1-yl)ethyl)-7-fluoro-2-methoxy-1,5-naphthyridine]	8 µg/mL (≈ 17.8 µM)	> 64 µg/mL	–	> 16 µg/mL	> 16 µg/mL	9 µg/mL (≈ 20 µM)	64 µg/mL (≈ 142 µM)	> 64 µg/mL	8 µg/mL (≈ 17.8 µM)	64 µg/mL (≈ 142 µM)	4 µg/mL (≈ 8.9 µM)	–	–	–	–	–	–	–
COc1ccc2ncc(F)c(CCN3CCC(C(=O)Cc4ccc(C)cc4)CC3)c2n1 [Example 22, 1-(1-(2-(3-fluoro-6-methoxy-1,5-naphthyridin-4-yl)ethyl)piperidin-4-yl)-2-(p-tolyl)ethan-1-one]	0.125 µg/mL (≈ 0.297 µM)	16 µg/mL (≈ 38 µM)	–	4 µg/mL (≈ 9.49 µM)	8 µg/mL (≈ 19 µM)	0.125 to 0.5 µg/mL (≈ 0.297 to 1.19 µM)	> 64 µg/mL	64 µg/mL (≈ 152 µM)	0.125 to 0.5 µg/mL (≈ 0.297 to 1.19 µM)	32 µg/mL (≈ 75.9 µM)	0.5 µg/mL (≈ 1.19 µM)	–	–	–	–	–	–	–
COc1ccc2ncc(F)c(CCN3CCC([C@@H]4OC(=O)O[C@H]4c4ccc(C)cc4)CC3)c2n1 [Example 31, (4S,5S)-4-(1-(2-(3-fluoro-6-methoxy-1,5-naphthyridin-4-yl)ethyl)piperidin-4-yl)-5-(p-tolyl)-1,3-dioxolan-2-one]	–	–	–	> 32 µg/mL	> 32 µg/mL	–	–	–	–	–	8 µg/mL (≈ 17.2 µM)	2 µg/mL (≈ 4.3 µM)	> 64 µg/mL	4 µg/mL (≈ 8.59 µM)	> 64 µg/mL	> 64 µg/mL	2 µg/mL (≈ 4.3 µM)	64 µg/mL (≈ 137 µM)
O=c1ccc2ncc(=O)n3c2n1C[C@H]3CN1CCC(NCc2cc3c(cn2)OCCC3)CC1 [gepotidacin, reference compound]	–	–	–	4 to 32 µg/mL (≈ 8.92 to 71.3 µM)	8 to 32 µg/mL (≈ 17.8 to 71.3 µM)	0.125 to 0.5 µg/mL (≈ 0.279 to 1.11 µM)	–	–	–	–	0.125 to 0.5 µg/mL (≈ 0.279 to 1.11 µM)	0.25 to 1 µg/mL (≈ 0.557 to 2.23 µM)	0.5 to 2 µg/mL (≈ 1.11 to 4.46 µM)	–	2 to 16 µg/mL (≈ 4.46 to 35.7 µM)	2 to 8 µg/mL (≈ 4.46 to 17.8 µM)	0.125 to 1 µg/mL (≈ 0.279 to 2.23 µM)	32 to 64 µg/mL (≈ 71.3 to 143 µM)
